Assay results taken from article PMC7026418, “The kinase polypharmacology landscape of clinical PARP inhibitors” (Scientific Reports, 2020).
Read-outs that look alike come from different tables or passages of the source.

How the values were obtained:
Test in all cases: biochemical
Design in all cases: DiscoveRx KINOMEscan active site-directed competition binding; percent of control kinase bound to immobilised ligand
CDKL3 = CDKL3 (Homo sapiens, UniProt Q8IVW4)
CIT = CIT (Homo sapiens, UniProt O14578)
DMPK2 = molecular target: T1, DMPK2 (Homo sapiens, UniProt Q6DT37)
T1 construct: gene CDC42BPG

FGFR3(G697C) = FGFR3(G697C) (Homo sapiens, UniProt P22607, G697C)
FLT4 = FLT4 (Homo sapiens, UniProt P35916)
MINK = molecular target: T2, MINK (Homo sapiens, UniProt Q8N4C8)
T2 construct: gene MINK1

[1] = molecular target: T3, RPS6KA4(Kin.Dom.2-C-terminal) (Homo sapiens, UniProt O75676)
T3 construct: Kin.Dom.2-C-terminal

[2] = molecular target: T4, RSK2(Kin.Dom.1-N-terminal) (Homo sapiens, UniProt P51812)
T4 construct: gene RPS6KA3; Kin.Dom.1-N-terminal

SGK = molecular target: T5, SGK (Homo sapiens, UniProt O00141)
T5 construct: gene SGK1
T5 sequence (O00141 1-431): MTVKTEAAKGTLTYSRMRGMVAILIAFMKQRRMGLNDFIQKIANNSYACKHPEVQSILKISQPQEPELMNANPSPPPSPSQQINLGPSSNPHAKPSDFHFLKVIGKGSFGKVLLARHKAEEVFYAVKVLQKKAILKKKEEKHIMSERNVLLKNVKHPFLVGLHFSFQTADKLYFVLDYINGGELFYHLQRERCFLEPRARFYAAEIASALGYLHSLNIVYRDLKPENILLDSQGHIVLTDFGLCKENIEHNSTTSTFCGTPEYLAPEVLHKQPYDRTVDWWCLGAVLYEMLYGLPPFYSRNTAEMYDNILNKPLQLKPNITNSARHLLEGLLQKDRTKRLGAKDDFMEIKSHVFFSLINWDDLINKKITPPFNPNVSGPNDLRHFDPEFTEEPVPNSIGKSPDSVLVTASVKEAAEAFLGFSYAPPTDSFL

TESK1 = TESK1 (Homo sapiens, UniProt Q15569)
TNK1 = molecular target: T6, TNK1 (Homo sapiens, UniProt Q13470)
T6 sequence (Q13470 1-666): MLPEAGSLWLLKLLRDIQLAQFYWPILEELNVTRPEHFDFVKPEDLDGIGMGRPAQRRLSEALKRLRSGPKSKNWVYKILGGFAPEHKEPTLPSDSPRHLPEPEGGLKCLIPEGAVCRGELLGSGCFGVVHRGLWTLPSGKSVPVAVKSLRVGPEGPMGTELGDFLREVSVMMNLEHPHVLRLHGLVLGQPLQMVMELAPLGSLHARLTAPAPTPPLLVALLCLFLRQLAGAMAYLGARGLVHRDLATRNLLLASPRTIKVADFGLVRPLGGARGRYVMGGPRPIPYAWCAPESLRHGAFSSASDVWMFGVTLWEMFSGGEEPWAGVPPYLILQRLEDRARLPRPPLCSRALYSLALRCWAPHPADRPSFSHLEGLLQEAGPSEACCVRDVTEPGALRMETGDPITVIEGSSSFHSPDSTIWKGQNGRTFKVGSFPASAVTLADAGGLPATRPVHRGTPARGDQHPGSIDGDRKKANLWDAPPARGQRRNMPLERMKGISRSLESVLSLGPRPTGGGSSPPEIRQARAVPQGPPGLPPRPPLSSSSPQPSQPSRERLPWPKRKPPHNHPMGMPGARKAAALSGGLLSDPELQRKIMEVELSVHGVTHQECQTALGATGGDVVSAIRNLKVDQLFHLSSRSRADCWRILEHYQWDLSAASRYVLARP

VEGFR2 = molecular target: T7, VEGFR2 (Homo sapiens, UniProt P35968)
T7 construct: gene KDR

[3] = read-out: Talazoparib (BMN 673) / %Ctrl @ 10000nM
[4] = read-out: Olaparib / %Ctrl @ 10000nM
[5] = read-out: Rucaparib / %Ctrl @ 10000nM, binding competition, % of control
[6] = read-out: Niraparib (MK-4827) / %Ctrl @ 10000nM

Sequence of CDKL3 (Q8IVW4 whole entry): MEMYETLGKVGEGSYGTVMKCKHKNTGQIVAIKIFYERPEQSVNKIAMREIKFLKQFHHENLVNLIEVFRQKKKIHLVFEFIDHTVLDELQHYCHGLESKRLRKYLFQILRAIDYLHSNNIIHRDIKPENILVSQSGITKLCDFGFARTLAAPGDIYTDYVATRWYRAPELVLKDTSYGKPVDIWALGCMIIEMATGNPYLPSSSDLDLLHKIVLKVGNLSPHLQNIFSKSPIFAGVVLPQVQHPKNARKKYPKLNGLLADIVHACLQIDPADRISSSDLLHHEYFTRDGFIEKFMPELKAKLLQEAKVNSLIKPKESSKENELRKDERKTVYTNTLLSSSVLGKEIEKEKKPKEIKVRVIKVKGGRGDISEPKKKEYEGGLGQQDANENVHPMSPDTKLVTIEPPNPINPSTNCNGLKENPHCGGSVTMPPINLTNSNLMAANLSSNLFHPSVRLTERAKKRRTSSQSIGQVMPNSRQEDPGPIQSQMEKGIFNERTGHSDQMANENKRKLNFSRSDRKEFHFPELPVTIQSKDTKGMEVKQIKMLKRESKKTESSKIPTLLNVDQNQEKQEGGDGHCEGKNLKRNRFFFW
T1 sequence (Q6DT37 whole entry): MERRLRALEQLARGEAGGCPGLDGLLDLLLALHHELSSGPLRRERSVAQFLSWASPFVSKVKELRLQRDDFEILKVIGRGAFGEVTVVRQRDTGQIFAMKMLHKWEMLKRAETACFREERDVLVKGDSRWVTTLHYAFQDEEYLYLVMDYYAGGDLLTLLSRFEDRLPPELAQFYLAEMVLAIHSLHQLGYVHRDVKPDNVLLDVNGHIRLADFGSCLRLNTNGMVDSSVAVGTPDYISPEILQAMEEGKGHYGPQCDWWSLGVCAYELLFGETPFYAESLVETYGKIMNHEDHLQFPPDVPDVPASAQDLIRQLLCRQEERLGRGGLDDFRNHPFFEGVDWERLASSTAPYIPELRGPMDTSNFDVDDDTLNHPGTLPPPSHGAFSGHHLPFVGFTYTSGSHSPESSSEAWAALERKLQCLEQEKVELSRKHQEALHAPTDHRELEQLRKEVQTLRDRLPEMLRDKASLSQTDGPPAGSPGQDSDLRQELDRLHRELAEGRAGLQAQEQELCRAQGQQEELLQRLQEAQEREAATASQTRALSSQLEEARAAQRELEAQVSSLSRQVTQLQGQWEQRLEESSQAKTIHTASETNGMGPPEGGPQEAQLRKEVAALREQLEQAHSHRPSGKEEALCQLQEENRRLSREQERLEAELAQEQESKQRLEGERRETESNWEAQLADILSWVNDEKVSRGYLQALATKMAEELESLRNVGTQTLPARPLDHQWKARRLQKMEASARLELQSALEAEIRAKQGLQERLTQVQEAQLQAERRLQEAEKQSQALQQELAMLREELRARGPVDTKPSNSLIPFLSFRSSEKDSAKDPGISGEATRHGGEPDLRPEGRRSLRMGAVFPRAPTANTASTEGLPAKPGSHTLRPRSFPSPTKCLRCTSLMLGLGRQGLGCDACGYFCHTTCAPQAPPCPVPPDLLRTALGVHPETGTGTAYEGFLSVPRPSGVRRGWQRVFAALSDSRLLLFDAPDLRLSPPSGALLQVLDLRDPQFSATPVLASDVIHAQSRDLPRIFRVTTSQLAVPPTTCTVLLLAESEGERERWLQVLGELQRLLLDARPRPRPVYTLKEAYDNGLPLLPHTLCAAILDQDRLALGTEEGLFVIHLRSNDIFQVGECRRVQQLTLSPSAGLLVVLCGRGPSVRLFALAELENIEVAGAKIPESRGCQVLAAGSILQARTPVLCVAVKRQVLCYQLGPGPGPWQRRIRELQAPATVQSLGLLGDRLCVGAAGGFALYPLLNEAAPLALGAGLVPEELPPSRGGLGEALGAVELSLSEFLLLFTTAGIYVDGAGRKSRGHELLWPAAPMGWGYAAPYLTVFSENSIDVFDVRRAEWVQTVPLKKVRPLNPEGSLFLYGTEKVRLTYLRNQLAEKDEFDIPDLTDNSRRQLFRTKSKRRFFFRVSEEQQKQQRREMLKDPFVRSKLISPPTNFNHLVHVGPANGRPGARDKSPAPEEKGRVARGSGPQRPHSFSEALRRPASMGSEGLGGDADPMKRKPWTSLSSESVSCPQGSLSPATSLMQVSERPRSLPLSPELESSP
Sequence of FGFR3(G697C) (P22607 whole entry G697C): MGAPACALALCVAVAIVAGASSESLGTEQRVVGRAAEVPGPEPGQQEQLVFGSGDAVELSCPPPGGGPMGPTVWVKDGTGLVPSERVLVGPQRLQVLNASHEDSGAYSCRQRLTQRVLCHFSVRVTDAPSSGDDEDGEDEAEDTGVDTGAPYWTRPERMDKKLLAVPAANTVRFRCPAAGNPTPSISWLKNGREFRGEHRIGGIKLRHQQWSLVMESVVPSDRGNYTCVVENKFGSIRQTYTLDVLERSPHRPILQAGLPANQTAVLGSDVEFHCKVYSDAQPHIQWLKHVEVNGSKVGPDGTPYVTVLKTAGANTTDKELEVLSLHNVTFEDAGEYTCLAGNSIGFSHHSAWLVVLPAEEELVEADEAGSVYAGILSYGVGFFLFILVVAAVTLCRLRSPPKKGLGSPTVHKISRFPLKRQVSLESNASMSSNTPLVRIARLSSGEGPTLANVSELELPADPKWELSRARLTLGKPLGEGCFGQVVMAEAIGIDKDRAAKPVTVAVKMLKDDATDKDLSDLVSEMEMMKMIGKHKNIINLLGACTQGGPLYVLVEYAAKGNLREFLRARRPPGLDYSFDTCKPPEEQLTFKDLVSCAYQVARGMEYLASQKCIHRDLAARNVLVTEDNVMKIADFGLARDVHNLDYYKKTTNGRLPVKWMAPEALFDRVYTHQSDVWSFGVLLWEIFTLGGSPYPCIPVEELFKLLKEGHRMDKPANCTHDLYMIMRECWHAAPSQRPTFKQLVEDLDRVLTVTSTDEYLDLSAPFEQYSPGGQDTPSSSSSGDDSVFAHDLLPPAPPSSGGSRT
Sequence of FLT4 (P35916 whole entry): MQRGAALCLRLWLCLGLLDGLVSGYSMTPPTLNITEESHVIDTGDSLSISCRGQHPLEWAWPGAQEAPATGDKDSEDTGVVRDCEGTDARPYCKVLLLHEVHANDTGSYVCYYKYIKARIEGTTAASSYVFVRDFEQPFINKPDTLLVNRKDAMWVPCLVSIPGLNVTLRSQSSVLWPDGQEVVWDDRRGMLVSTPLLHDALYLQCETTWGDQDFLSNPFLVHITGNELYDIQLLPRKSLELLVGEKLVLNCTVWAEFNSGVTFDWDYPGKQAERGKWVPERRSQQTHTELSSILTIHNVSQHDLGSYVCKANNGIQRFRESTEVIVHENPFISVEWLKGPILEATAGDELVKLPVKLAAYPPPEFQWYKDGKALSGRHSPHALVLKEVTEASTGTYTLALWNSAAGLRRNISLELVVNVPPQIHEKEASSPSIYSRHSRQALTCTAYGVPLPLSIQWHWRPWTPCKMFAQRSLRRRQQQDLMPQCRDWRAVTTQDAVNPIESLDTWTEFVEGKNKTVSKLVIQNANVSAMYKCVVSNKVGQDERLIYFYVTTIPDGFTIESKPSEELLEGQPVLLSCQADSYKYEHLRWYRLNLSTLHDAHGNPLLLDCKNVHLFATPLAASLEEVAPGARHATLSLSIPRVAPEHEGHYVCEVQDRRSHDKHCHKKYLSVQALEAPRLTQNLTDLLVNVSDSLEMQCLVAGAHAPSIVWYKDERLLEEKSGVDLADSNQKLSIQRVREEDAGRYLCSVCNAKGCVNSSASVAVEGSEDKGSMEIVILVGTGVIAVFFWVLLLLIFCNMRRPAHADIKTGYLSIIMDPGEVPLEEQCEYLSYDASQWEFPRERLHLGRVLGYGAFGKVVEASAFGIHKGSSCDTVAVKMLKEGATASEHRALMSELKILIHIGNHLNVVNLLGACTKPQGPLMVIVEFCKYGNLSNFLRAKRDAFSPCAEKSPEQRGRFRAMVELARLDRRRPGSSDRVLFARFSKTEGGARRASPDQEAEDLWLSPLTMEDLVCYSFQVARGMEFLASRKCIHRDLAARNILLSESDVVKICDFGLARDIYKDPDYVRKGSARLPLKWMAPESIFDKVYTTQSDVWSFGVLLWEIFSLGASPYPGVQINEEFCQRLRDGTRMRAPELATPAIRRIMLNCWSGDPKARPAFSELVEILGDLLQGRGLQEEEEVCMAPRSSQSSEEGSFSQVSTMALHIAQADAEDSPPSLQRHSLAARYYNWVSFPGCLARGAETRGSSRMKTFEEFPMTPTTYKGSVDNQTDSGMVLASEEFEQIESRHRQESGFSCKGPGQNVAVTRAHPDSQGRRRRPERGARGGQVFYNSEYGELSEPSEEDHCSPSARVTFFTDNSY
T4 sequence (P51812 whole entry): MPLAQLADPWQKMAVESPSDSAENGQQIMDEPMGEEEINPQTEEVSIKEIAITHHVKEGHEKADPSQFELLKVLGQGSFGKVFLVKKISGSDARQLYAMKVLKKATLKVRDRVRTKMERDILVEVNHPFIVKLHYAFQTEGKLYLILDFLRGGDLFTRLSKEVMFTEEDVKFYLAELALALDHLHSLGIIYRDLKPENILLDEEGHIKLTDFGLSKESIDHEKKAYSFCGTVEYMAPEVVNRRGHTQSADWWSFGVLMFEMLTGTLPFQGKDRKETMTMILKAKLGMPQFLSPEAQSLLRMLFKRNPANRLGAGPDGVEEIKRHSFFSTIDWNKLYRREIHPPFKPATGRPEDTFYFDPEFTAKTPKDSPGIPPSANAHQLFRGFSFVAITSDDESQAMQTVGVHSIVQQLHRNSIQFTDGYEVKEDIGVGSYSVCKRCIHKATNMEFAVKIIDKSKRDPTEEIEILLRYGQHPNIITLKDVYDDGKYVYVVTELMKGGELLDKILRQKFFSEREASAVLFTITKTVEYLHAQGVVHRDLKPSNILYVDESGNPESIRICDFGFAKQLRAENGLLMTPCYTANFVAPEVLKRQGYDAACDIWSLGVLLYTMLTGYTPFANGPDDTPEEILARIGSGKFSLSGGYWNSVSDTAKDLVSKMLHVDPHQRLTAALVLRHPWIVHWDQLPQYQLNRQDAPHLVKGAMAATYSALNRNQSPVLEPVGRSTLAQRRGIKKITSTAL

For `Cn1ncnc1[C@H]1c2n[nH]c(=O)c3cc(F)cc(c23)N[C@@H]1c1ccc(F)cc1` [Talazoparib], the percent of control binding at 10 µM (CDKL3; [3]) was 97%, the percent of control binding at 10 µM (CIT; [3]) was 98% and the percent of control binding at 10 µM (DMPK2; [3]) was 100%. For the same molecule, the percent of control binding at 10 µM (FGFR3(G697C); [3]) was 92%, the percent of control binding at 10 µM (FLT4; [3]) was 93% and the percent of control binding at 10 µM (MINK; [3]) was 100%. For the same molecule, the percent of control binding at 10 µM [1, 3] was 100%, the percent of control binding at 10 µM [2, 3] was 88% and the percent of control binding at 10 µM (SGK; [3]) was 92%. The percent of control binding at 10 µM (TESK1; [3]) was 99%, the percent of control binding at 10 µM (TNK1; [3]) was 93% and the percent of control binding at 10 µM (VEGFR2; [3]) was 100%.

`O=C(c1cc(Cc2n[nH]c(=O)c3ccccc23)ccc1F)N1CCN(C(=O)C2CC2)CC1` [Olaparib] gave a percent of control binding at 10 µM (CDKL3; [4]) of 100%, a percent of control binding at 10 µM (CIT; [4]) of 87% and a percent of control binding at 10 µM (DMPK2; [4]) of 100%. For the same molecule, the percent of control binding at 10 µM (FGFR3(G697C); [4]) was 98%, the percent of control binding at 10 µM (FLT4; [4]) was 97% and the percent of control binding at 10 µM (MINK; [4]) was 100%. For the same molecule, the percent of control binding at 10 µM [1, 4] was 92%, the percent of control binding at 10 µM [2, 4] was 94% and the percent of control binding at 10 µM (SGK; [4]) was 97%. It also gave a percent of control binding at 10 µM (TESK1; [4]) of 90%, a percent of control binding at 10 µM (TNK1; [4]) of 95% and a percent of control binding at 10 µM (VEGFR2; [4]) of 95%.

For `CNCc1ccc(-c2[nH]c3cc(F)cc4c3c2CCNC4=O)cc1` [Rucaparib], the percent of control binding at 10 µM (CDKL3; [5]) was 100%, the percent of control binding at 10 µM (CIT; [5]) was 4.8% and the percent of control binding at 10 µM (DMPK2; [5]) was 99%. For the same molecule, the percent of control binding at 10 µM (FGFR3(G697C); [5]) was 100%, the percent of control binding at 10 µM (FLT4; [5]) was 95% and the percent of control binding at 10 µM (MINK; [5]) was 29%. It also gave a percent of control binding at 10 µM [1, 5] of 91%, a percent of control binding at 10 µM [2, 5] of 52% and a percent of control binding at 10 µM (SGK; [5]) of 61%. For the same molecule, the percent of control binding at 10 µM (TESK1; [5]) was 98%, the percent of control binding at 10 µM (TNK1; [5]) was 91% and the percent of control binding at 10 µM (VEGFR2; [5]) was 98%.

Work on `NC(=O)c1cccc2cn(-c3ccc([C@@H]4CCCNC4)cc3)nc12` [Niraparib] yielded a percent of control binding at 10 µM (CDKL3; [6]) of 64%, a percent of control binding at 10 µM (CIT; [6]) of 10% and a percent of control binding at 10 µM (DMPK2; [6]) of 93%. For the same molecule, the percent of control binding at 10 µM (FGFR3(G697C); [6]) was 90%, the percent of control binding at 10 µM (FLT4; [6]) was 99% and the percent of control binding at 10 µM (MINK; [6]) was 67%. The percent of control binding at 10 µM [1, 6] was 80%, the percent of control binding at 10 µM [2, 6] was 94% and the percent of control binding at 10 µM (SGK; [6]) was 89%. It also gave a percent of control binding at 10 µM (TESK1; [6]) of 79%, a percent of control binding at 10 µM (TNK1; [6]) of 56% and a percent of control binding at 10 µM (VEGFR2; [6]) of 77%.
